5 compounds from PMC5569068, “Potential inhibitors designed against NDM-1 type metallo-β-lactamases: an attempt to enhance efficacies of antibiotics against multi-drug-resistant bacteria” (Scientific Reports, 2017) can be followed below.

For test [1], the system named is E. coli DH5α transformed with recombinant NDM-1 (pQE-2- NDM-1). The test is described as follows: microbe, parasite or virus in culture. It counts as cell-based. As to conditions: for Minimum inhibitory concentration: (pQE-2- NDM-1) DH5α; for MIC: Escherichia coli, read-out: Minimum inhibitory concentration; for MIC of antibiotic when combined with each of the five molecules: bla NDM-1 clone, combined with M1, M17, M21, M61 or M75. On the procedure:
(§1) The MIC was determined for E. coli DH5α cells, E. coli DH5α cells with vector and E. coli DH5α cells with bla NDM-1 carrying vectors. […] We next assayed the activities of these drugs in combination with novel screened molecules.
(§2) The MICs of four antibiotics were calculated (Table 4).

The subject of test [2] is original DH5α (with null vector) (pQE-2- Original). The test is described as follows: microbe, parasite or virus in culture. In kind it is cell-based, E. coli. As to conditions: (pQE-2- Original) DH5α; for MIC: Escherichia coli, read-out: Minimum inhibitory concentration. On the procedure: as §1, §2

Consider `C[C@@H](O)[C@H]1C(=O)N2C(C(=O)O)=C(SCCN=CN)C[C@H]12` [Imipenem], for which, in test [1], the Minimum inhibitory concentration worked out at 2.00 µg/mL, the MIC was 2 µg/mL and the “MIC of antibiotic when combined with each of the five molecules” value (“MIC of antibiotic when combined” for short) came out at 1 µg/mL. Besides, in test [2], the MIC was found to be 0.5 µg/mL.
Regarding `CO/N=C(\C(=O)N[C@@H]1C(=O)N2C(C(=O)O)=C(COC(C)=O)CS[C@H]12)c1csc(N)n1` [Cephotaxime], the Minimum inhibitory concentration turned out to be 512 µg/mL in test [1] and 0.25 µg/mL in test [2].
As for `CC(C)(O/N=C(\C(=O)N[C@@H]1C(=O)N2C(C(=O)[O-])=C(C[n+]3ccccc3)CS[C@H]12)c1csc(N)n1)C(=O)O` [Ceftazidime], in test [1], the Minimum inhibitory concentration came out at 8.00 µg/mL, the MIC turned out to be 8 µg/mL and the “MIC of antibiotic when combined” value is 4 µg/mL. Besides, the MIC in test [2] amounted to 0.25 µg/mL.
As to `CO[C@@]1(NC(=O)Cc2cccs2)C(=O)N2C(C(=O)O)=C(COC(N)=O)CS[C@@H]21` [Cefoxitin], in test [1], the Minimum inhibitory concentration was 16.0 µg/mL, the MIC turned out to be 16 µg/mL and the “MIC of antibiotic when combined” value came out at 8 µg/mL. The MIC in test [2] worked out at 2 µg/mL.
Regarding `C[C@@H](O)[C@H]1C(=O)N2C(C(=O)O)=C(S[C@@H]3CN[C@H](C(=O)N(C)C)C3)[C@H](C)[C@H]12` [Meropenem], in test [1], the Minimum inhibitory concentration came out at 2.00 µg/mL, the MIC is 2 µg/mL and the “MIC of antibiotic when combined” value was 1 µg/mL. Also, the MIC in test [2] is 0.5 µg/mL.
